Consider two compounds from US11833160B2, “Ursodeoxycholic acid derivatives as HDAC inhibitors for the treatment of polycystic diseases” (UNIVERSIDAD DEL PAIS VASCO/EUSKAL HERRIKO UNIBERTSITATEA, priority 2017, dated 2023).

What is called IC50 is the concentration needed to halve the response being measured.

Structures are written as SMILES.

The target of one assay is T1, human HDAC1 (Homo sapiens, UniProt Q13547).
T1 construct: GST (C); purchased BioMol SE-456; host or cells: baculovirus / Sf9 cells
T1 sequence (Q13547 whole entry): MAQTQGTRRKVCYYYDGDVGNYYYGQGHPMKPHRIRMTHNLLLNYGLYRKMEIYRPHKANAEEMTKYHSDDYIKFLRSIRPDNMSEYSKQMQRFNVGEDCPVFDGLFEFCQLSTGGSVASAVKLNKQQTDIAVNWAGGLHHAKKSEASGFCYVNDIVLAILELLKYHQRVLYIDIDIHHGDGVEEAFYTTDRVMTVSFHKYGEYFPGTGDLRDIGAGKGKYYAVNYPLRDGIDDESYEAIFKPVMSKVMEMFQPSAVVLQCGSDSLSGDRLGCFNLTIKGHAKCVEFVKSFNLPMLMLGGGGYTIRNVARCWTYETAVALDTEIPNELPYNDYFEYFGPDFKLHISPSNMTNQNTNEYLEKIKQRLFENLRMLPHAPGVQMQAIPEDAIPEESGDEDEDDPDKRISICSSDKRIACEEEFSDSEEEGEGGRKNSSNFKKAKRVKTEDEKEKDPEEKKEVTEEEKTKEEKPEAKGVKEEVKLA
The assay is described as follows: HDAC1 enzymatic activity assay (fluorogenic peptide). Format: biochemical. To be noted: 10-dose, 3-fold serial dilution, triplicate. On the procedure:
(§1) Peptide substrates: all HDAC assays were performed using acetylated peptide substrates labeled with 7-amino-4-methylcoumarin (AMC): • Substrate for isoforms HDAC1, 2, 3, 6, 10, 11, and HeLa nuclear extract assays: acetylated fluorogenic peptide from p53 residues 379-382 (RHKKAc). • Substrate for isoforms HDAC4, 5, 7, 9: fluorogenic Boc-L-Lys (s-trifluoroacetyl)-AMC. • Substrate for HDAC8 assays: acetylated fluorogenic peptide from p53 residues 379-382 (RHKAcKAc).
(§2) 50 μl of peptide substrate (see “peptide substrates” section above) and an optimal concentration of the corresponding enzyme (see “enzymes” section above) in the assay buffer at a final DMSO concentration of 1% were incubated in the presence of gradient concentrations of inhibitors (10-dose IC50 mode with 3-fold serial dilution) at 30° C. for 2 hours. The reactions were carried out in a 96-well microplate for fluorometry in a 50 μl reaction volume. After the deacetylation reaction, Fluor-de-Lys-Developer (BioMol Cat. #KI-105) was added to each well to digest the deacetylated substrate, thereby producing the fluorescent signal. The reaction was carried out for 45 minutes at 30° C. with 5% CO2; the fluorescent signal was then measured using an excitation wavelength of 360 nm and an emission wavelength of 460 nm in a microplate-reading fluorometer (GeminiXS, Molecular Devices, Sunnyvale, CA). A curve of deacetylated standard (Biomol, Cat. #KI-142; made from 100 μM with 1:2 dilution and 10 doses, 6 μl) allowed the conversion of the fluorescent signal into micromoles of deacetylated product. All experiments were performed in triplicate. The IC50s were calculated by fitting the experimental data to dose-response curve. DMSO was used as negative control; Trichostatin A (Biomol Cat. #GR-309) was used as positive control inhibitor.
(§3) Enzymatic activity assays were carried out in 11 HDAC enzymes, including HDAC6.

In another assay the target is T2, human HDAC2 (Homo sapiens, UniProt Q92769).
T2 construct: His (C); purchased BioMol SE-500; host or cells: baculovirus / Sf9 cells
T2 sequence (Q92769 whole entry): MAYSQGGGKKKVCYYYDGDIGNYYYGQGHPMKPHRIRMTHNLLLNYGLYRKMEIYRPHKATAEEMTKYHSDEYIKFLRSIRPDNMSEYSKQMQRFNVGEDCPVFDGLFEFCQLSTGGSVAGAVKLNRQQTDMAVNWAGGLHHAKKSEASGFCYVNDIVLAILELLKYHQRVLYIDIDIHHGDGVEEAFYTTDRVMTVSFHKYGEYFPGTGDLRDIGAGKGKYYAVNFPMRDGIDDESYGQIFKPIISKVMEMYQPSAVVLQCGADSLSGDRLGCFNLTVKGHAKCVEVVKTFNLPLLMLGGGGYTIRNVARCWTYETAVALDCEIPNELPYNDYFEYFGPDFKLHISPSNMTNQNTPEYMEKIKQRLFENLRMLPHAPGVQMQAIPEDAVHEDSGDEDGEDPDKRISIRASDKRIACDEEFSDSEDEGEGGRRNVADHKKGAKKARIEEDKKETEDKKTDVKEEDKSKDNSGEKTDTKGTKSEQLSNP
In words: HDAC2 enzymatic activity assay (fluorogenic peptide). To be noted: 10-dose, 3-fold serial dilution, triplicate. The assay is classed as biochemical. On the procedure:
as §1, §2, §3

A further assay deals with T3, human HDAC3/NcoR2 (Homo sapiens, UniProt O15379).
T3 construct: human HDAC3 complex, full length with His C-terminal tag, MW=49.7 kDa; His (C); purchased BioMol SE-507; host or cells: baculovirus expression system
T3 sequence (O15379 whole entry): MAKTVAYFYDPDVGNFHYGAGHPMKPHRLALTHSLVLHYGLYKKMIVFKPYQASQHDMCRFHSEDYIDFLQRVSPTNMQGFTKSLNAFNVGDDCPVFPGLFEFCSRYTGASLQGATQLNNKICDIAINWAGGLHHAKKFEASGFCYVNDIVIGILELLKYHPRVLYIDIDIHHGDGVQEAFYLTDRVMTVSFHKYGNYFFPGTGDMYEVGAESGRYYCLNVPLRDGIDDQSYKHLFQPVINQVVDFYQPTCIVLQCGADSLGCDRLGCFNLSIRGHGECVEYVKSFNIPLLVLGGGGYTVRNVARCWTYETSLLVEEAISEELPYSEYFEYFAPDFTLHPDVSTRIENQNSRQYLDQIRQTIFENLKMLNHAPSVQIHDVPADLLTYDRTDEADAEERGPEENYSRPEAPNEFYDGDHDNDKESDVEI
T3 sequence (Q9Y618 395-489 partner limits assumed): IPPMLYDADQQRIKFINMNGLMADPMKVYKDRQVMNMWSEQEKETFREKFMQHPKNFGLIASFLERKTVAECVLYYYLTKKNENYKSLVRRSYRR
In words: HDAC3 enzymatic activity assay (fluorogenic peptide). Format: biochemical. To be noted: 10-dose, 3-fold serial dilution, triplicate. On the procedure: as §1
50 μl of peptide substrate (see “peptide substrates” section above) and an optimal concentration of the corresponding enzyme (see “enzymes” section above) in the assay buffer at a final DMSO concentration of 1% were incubated in the presence of gradient concentrations of inhibitors (10-dose IC50 mode with 3-fold serial dilution) at 30° C. for 2 hours. The reactions were carried out in a 96-well microplate for fluorometry in a 50 μl reaction volume. After the deacetylation reaction, Fluor-de-Lys-Developer (BioMol Cat. #KI-105) was added to each well to digest the deacetylated substrate, thereby producing the fluorescent signal. The reaction was carried out for 45 minutes at 30° C. with 5% CO2; the fluorescent signal was then measured using an excitation wavelength of 360 nm and an emission wavelength of 460 nm in a microplate-reading fluorometer (GeminiXS, Molecular Devices, Sunnyvale, CA). […]

Another assay deals with T4, human HDAC6 (Homo sapiens, UniProt Q9UBN7).
T4 construct: GST (N); purchased BioMol SE-508; host or cells: baculovirus / Sf9 cells
T4 sequence (Q9UBN7 1-1215): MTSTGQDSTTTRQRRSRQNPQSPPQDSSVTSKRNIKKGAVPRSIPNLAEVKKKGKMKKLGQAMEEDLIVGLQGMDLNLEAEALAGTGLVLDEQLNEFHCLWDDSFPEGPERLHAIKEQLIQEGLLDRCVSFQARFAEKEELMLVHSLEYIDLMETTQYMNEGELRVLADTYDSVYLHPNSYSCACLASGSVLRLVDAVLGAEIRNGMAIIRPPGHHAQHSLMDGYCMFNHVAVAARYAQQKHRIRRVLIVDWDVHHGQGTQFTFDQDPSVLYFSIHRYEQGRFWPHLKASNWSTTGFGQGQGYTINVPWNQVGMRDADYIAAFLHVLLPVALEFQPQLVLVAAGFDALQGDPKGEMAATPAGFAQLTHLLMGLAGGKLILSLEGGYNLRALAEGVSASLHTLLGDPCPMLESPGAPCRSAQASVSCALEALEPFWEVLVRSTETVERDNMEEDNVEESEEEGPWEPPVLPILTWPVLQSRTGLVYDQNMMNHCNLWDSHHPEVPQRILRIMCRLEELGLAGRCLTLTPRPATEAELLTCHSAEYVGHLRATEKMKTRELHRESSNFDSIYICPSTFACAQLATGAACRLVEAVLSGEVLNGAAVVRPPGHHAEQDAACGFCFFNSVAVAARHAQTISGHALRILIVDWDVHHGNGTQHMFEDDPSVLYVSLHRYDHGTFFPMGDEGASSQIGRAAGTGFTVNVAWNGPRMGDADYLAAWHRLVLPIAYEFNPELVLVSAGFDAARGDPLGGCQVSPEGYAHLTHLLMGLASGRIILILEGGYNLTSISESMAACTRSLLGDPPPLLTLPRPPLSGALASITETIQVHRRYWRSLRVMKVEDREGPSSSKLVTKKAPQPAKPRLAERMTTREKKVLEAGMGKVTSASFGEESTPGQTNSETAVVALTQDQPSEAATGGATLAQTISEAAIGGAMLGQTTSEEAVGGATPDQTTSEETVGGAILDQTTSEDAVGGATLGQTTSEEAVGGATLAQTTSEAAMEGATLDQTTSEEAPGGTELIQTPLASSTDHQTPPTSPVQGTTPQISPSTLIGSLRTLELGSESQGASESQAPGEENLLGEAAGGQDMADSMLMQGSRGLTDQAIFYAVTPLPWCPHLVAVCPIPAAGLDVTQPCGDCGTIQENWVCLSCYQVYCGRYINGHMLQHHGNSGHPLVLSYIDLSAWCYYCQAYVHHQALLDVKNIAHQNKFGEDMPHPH
In words: HDAC6 enzymatic activity assay (fluorogenic peptide). The assay is classed as biochemical. The conditions noted are these: for IC50: 10-dose, 3-fold serial dilution, triplicate. The procedure: as §1, §2, §3

The next assay relates to HDAC enzymes. The assay is described as follows: Enzymatic activity assays in 11 HDAC enzymes (statements on the panel). Format: biochemical, human. The conditions noted are these: HDAC enzymes other than HDAC6. On the procedure: as §1, §2, §3
Assay [1] deals with polycystic human cholangiocytes. The assay is described as follows: Intracellular Ca^2+ measurement (Fluo-4 AM). The assay is classed as cell-based. The text has this: As described previously [Banales J M et al. Hepatology 2009; Perugorria M J et al. Nature Reviews G&H; Munoz-Garrido P et al. Journal of Hepatology 2015], polycystic (human and rat) cholangiocytes are characterized by a decrease in intracellular Ca^2+ levels, which promotes their proliferation. Furthermore, it has been proven that chronic treatment with UDCA is capable of partially inhibiting the proliferation of polycystic human cholangiocytes through the normalization of intracellular Ca^2+ levels in experimental models [Munoz-Garrido P et al. Journal of Hepatology 2015] and patients [D'Agnolo H M A, et al. Journal of Hepatology 2016] with PLD. […] To that end, the “Fluo-4 AM” (Thermo Fisher Scientific) intracellular Ca^2+ measurement method was used. A Ca^2+ ionophore (i.e., A23187, Sigma) was used as positive control.

`C[C@H](CCC(=O)NCC(=O)NCc1ccc(C(=O)NO)cc1)[C@H]1CC[C@H]2[C@@H]3[C@@H](O)C[C@@H]4C[C@H](O)CC[C@]4(C)[C@H]3CC[C@]12C` [Ib, 4-((2-((R)-4 ((3R,5S,7S,8R,9S,10S,13R,14S,17R)-3,7-dihydroxy-10,13-dimethylhexadecahydro-1H-cyclopenta[a]phenanthren-17-yl)pentanamide)acetamido)methyl)-N-hydroxybenzamide]: the IC50 worked out at 9.01 µM at human HDAC1, 13.2 µM against human HDAC2, 9.99 µM at human HDAC3/NcoR2 and 0.0561 µM at human HDAC6. Further, on human HDAC6, the “selectivity and inhibitory capacity with respect to HDAC6 enzyme” value is on record as “nanomolar range”. Also, the “inhibitory capacity with respect to the rest of the HDAC enzymes” value in the assay on HDAC enzymes is on record as “micromolar range”. Further, the “intracellular Ca^2+ levels” value in assay [1] is recorded as “increasing intracellular Ca^2+ levels”.

`C[C@H](CCC(=O)NCc1ccc(C(=O)NO)cc1)[C@H]1CC[C@H]2[C@@H]3[C@@H](O)C[C@@H]4C[C@H](O)CC[C@]4(C)[C@H]3CC[C@]12C` [Compound Ia]: the concentration for half-maximal inhibition (IC50) amounted to 10.1 µM against human HDAC1, 18.8 µM at human HDAC2, 8.37 µM at human HDAC3/NcoR2 and 0.058 µM against human HDAC6. In addition, at human HDAC6, the “selectivity and inhibitory capacity with respect to HDAC6 enzyme” value was “nanomolar range”. This compound yielded an HDAC6 selectivity proportion at human HDAC6 (matches IC50 HDAC1 / IC50 HDAC6) of 174. Moreover, in the assay on HDAC enzymes, the “inhibitory capacity with respect to the rest of the HDAC enzymes” value was “micromolar range”. In addition, in assay [1], the “intracellular Ca^2+ levels” value is reported as “increasing intracellular Ca^2+ levels”.
